Source: patent US4166765A, “Detecting Neisseria bacteria” (Corning Glass Works, priority 1977, dated 1979)

Each molecule was assayed on 1,2-propanediol dehydrogenase (assay: Substrate specificity of the enzyme on analogs of 1,2-propanediol using NAD). Settings: substrate with NAD; relative to 1,2-propanediol = 100.
Assay type: biochemical, Neisseria
Design: concentration or dose not given beside the values
Protocol: The following reagents were added to 12×75 mm plastic tubes:
To each test tube was added 100 μl of a bacterial lysate. Incubations varied in time from being read immediately and continuously for 4 minutes, to allowing the assay tubes to incubate one-half hour before reading. All procedures and incubations were carried out at room temperature.
The samples were read at 340 nm (ultraviolet) on a Perkin-Elmer double beam spectrophotometer. A Honeywell Electronik 194 recorder was used to record absorbency. The tests that were read immediately and continuously for 4 minutes were allowed to record for the same time period. Those tests read after 30 minutes were not read continuously, but had their absorbencies recorded after the incubation period [Activity (A) was determined in the 4 minute monitored assay and in the 30 minute assay].
In order to examine the specificity of the substrate with respect to the enzyme, it was assayed on several analogs of 1,2-propanediol using NAD.

**Q.** Which “% Reactivity” value does the source give for OCC(O)CCl (stereo not shown) [1 chloro 2,3-propanediol] here?
**A.** The value was 0%.

**Q.** Which “% Reactivity” value does the source give for CCC(O)CO (stereo not shown) [1,2 butanediol] here?
**A.** The value was 10%.

**Q.** For OCCO [1,2 ethanediol], which “% Reactivity” value is on record?
**A.** The value was 0%.

**Q.** CC(O)CO (stereo not shown) [1,2-propanediol] was tested. Which “% Reactivity” value did it give?
**A.** Its value is 100%.

**Q.** With OCCCO [1,3 propanediol] as the molecule, how does the “% Reactivity” value read?
**A.** Its value is 0%.

**Q.** How did the “% Reactivity” value turn out when CCCO [1-propanol] was run?
**A.** Its value is 0%.

**Q.** Which “% Reactivity” value does the source give for CC(C)O [2-propanol] here?
**A.** The value was 0%.

**Q.** O=C(CO)CO [Dihydroxyacetone] was tested. Which “% Reactivity” value did it give?
**A.** The value was 21%.

**Q.** Which “% Reactivity” value does the source give for CCO [Ethanol] here?
**A.** Its value is 0%.

**Q.** For OCC(O)CO [Glycerol], which “% Reactivity” value is on record?
**A.** The value was 1%.
